According to patent US20090253157A1, “METHOD OF DIRECTED DIFFERENTIATION OF PORCINE EMBRYONIC STEM CELLS AND USING THE SAID CELLS IN DRUG SCREENING” (Livestock Research Institute, Council of Agriculture, …, priority 2008, published 2009):
Where “and” joins values, the source holds several entries; their conditions need not be identical. Equal values may be shown once. Marks after values point to notes of the source that are not given here.

Test system: pES cells of the M215-3 strain
Assay: Directed neural differentiation of pES cells (two-stage induction), immunocytochemical staining for neural biomarkers
Assay type: cell-based, porcine
Description: The pES cells of the M215-3 strain derived from the pre-implantation blastocysts of Taiwan Livestock Research Institute Black Pig No. 1 (a topcrossing breed established from Taoyuan and Duroc pigs) were maintained in ES-cell culture medium (ESM) consisting of Dulbecco's modified eagle medium (DMEM, high glucose and no pyruvate, Invitrogen, Grand Island, N.Y., USA) supplemented with 1 mM L-glutamine (Sigma-Aldrich, St. Louis, Mo., USA), 0.1 mM β-2-mercaptoethanol (Sigma-Aldrich), […] MEM non-essential amino acids (Sigma-Aldrich), 0.03 mM adenosine (Sigma-Aldrich), 0.03 mM guanosine (Sigma-Aldrich), 0.03 mM cytidine (Sigma-Aldrich), 0.03 mM uridine (Sigma-Aldrich), 0.01 mM thymidine (Sigma-Aldrich), antibiotics (50 units/ml penicillin G and 50 μg/ml streptomycin sulfate, Invitrogen) and 16% fetal bovine serum (FBS, Invitrogen) as described previously (Chen et al., 1991, J. Chin. Soc. Anim. Sci. 20: 326-339). Briefly, the pluripotent pES cells were propagated on a feeder layer of mitomycin C (Sigma-Aldrich) inactivated STO cells (mouse embryonic fibroblasts, CRL-1503, USA) in gelatin-coated Multidish 4 Wells® (Nunc 176740, Roskilde, Denmark) in ESM at 39° C. with an atmosphere of 5% CO2 in air. For the maintenance of undifferentiation, pES colonies were regulatory subcultured with 0.25% trypsin-0.02 mM EDTA (Invitrogen) and re-plated onto fresh STO feeder layers every 5 to 7 days.
Confluent pES cells were trypsinized and subjected to a two-stage in vitro induction protocol for neural differentiation. They were firstly taken into a suspension culture in an Easy Flask® (NUNC 169900, Roskilde, Denmark) for a 12-day period of neural induction. Neural induction is initiated by plating undifferentiated pES cells as single-cell suspension at a number of 1×10^5 cells totally in ESM medium withdrawing FBS and containing 1 μM retinoic acid (RA, Sigma-Aldrich), 200 ng/ml sonic hedgehog (SHH, R&D systems, Minneapolis, Minn., USA) and 100 ng/ml fibroblast growth factor (FGF, Sigma-Aldrich) as described by Barberi et al. (Nat. Biotechnol. 2003. 21: 1200-1207). Five combined treatments of neurogenic stimulators for neural induction were applied: (1) RA, (2) RA+SHH, (3) RA+FGF, (4) SHH+FGF, (5) RA+SHH+FGF. After 12 days of induction, the pES cell-derived neural cells were plated onto gelatin-coated 4-well dishes in high-density (2×10^4 cells/ml) or low-density (5×10^3 cells/ml). These cells were then cultured in DMEM/F12 medium (Sigma-Aldrich) supplemented with 10% FBS, 20 ng/ml human recombinant epidermal growth factor (hrEGF, Invitrogen), 20 ng/ml human recombinant basic fibroblast growth factor (hrbFGF, Invitrogen), and 1:100 N2 (Invitrogen), and allowed for the propagation of neural precursor cells (Pan et al., 2005 Biochem. Biophys. Res. Commun. 327: 548-556). After plating onto the 4-well dish, the induced pES cells were treated with trypsin/EDTA and collected at days 2, 4, 6, 8, 10, and 12, respectively, to analyze the neural-related development by immunocytochemical staining.
Cells for immunocytochemical analysis were fixed in 10% formalin at room temperature for 30 minutes. The cells were washed with phosphate buffered saline (PBS, Sigma-Aldrich), then incubated with 0.3% Triton X-100 (Sigma-Aldrich) for 10 minutes, 3% H2O2 (Sigma-Aldrich) for 5 minutes and incubated in blocking buffer (5% FBS) at room temperature for 2 hours. After being washed with PBS, the cells were incubated overnight with appropriate dilution of primary antibody, or combination of antibodies at 4° C. (Li et al., 2005 Nat. Biotechnol. 2005. 23: 215-221). Subsequently, cells were incubated with secondary antibody of Fluorescein (FITC)-conjugated AffiniPure Goat Anti-Rabbit IgG, Goat Anti-Mouse IgG, IgM (1:200, Jackson Immunoresearch Laboratories, West Baltimore Pike, Pa., USA) for a minimum of 2 hours, followed by washing in PBS. […]

[1] = day 6 after the treatments, mean±S.D.

CC1=C(/C=C/C(C)=C/C=C/C(C)=C/C(=O)O)C(C)(C)CCC1 [RA, retinoic acid]
percentage of pES cell-derived neural lineages expressing nestin (D2 after replating, 12-day induction, 1 μM RA, 200 ng/ml SHH, 100 ng/ml FGF, mean±S.D.): 86.2 ± 7.9^ab %
percentage of pES cell-derived neural lineages expressing A2B5 (D2 after replating, mean±S.D.): 83.7 ± 12.6%
percentage of pES cell-derived neural lineages expressing ChAT (D2 after replating, mean±S.D.): 87.1 ± 5.6^ab %
percentage of pES cell-derived neural lineages expressing GFAP (D2 after replating, mean±S.D.): 9.8 ± 3.8%
percentage of pES cell-derived neural lineages expressing NFL (D2 after replating, mean±S.D.): 93.9 ± 3.9^a %
percentage of pES cell-derived neural lineages expressing TH (D2 after replating, mean±S.D.): 7.8 ± 2.5%
percentage of pES cell-derived neural lineages expressing A2B5 (D4 after replating, mean±S.D.): 86.6 ± 3.3%
percentage of pES cell-derived neural lineages expressing ChAT (D4 after replating, mean±S.D.): 85.8 ± 3.2^bc %
percentage of pES cell-derived neural lineages expressing GFAP (D4 after replating, mean±S.D.): 7.6 ± 4.2%
percentage of pES cell-derived neural lineages expressing NFL (D4 after replating, mean±S.D.): 90.3 ± 4.8^ab %
percentage of pES cell-derived neural lineages expressing TH (D4 after replating, mean±S.D.): 8.0 ± 4.9%
percentage of pES cell-derived neural lineages expressing nestin (D4 after replating, mean±S.D.): 90.5 ± 4.7^a %
percentage of pES cell-derived neural lineages expressing A2B5 (D6 after replating, mean±S.D.): 87.6 ± 7.4% and 87.6 ± 7.4^a %
percentage of pES cell-derived neural lineages expressing ChAT (D6 after replating, mean±S.D.): 91.8 ± 8.3^a %
percentage of pES cell-derived neural lineages expressing GFAP (D6 after replating, mean±S.D.): 7.7±3.6% and 7.7 ± 3.6^d %
percentage of pES cell-derived neural lineages expressing NFL (D6 after replating, mean±S.D.): 91.8 ± 6.0^a %
percentage of pES cell-derived neural lineages expressing TH (D6 after replating, mean±S.D.): 8.7±1.7% and 8.7 ± 1.7^b %
percentage of pES cell-derived neural lineages expressing A2B5 (D8 after replating, mean±S.D.): 86.9 ± 9.3%
percentage of pES cell-derived neural lineages expressing ChAT (D8 after replating, mean±S.D.): 86.9 ± 4.4^ab %
percentage of pES cell-derived neural lineages expressing GFAP (D8 after replating, mean±S.D.): 7.3 ± 1.5%
percentage of pES cell-derived neural lineages expressing NFL (D8 after replating, mean±S.D.): 85.8 ± 4.2^b %
percentage of pES cell-derived neural lineages expressing TH (D8 after replating, mean±S.D.): 8.5 ± 2.7%
percentage of pES cell-derived neural lineages expressing nestin (D8 after replating, mean±S.D.): 81.2 ± 8.0^bc %
percentage of pES cell-derived neural lineages expressing A2B5 (D10 after replating, mean±S.D.): 86.3 ± 1.9%
percentage of pES cell-derived neural lineages expressing ChAT (D10 after replating, mean±S.D.): 89.9 ± 7.2^ab %
percentage of pES cell-derived neural lineages expressing GFAP (D10 after replating, mean±S.D.): 7.7 ± 4.5%
percentage of pES cell-derived neural lineages expressing NFL (D10 after replating, mean±S.D.): 84.4 ± 7.7^b %
percentage of pES cell-derived neural lineages expressing TH (D10 after replating, mean±S.D.): 8.5 ± 4.2%
percentage of pES cell-derived neural lineages expressing nestin (D10 after replating, mean±S.D.): 82.4 ± 11.4^bc %
percentage of pES cell-derived neural lineages expressing A2B5 (D12 after replating, mean±S.D.): 84.8 ± 5.2%
percentage of pES cell-derived neural lineages expressing ChAT (D12 after replating, mean±S.D.): 80.3 ± 6.0^c %
percentage of pES cell-derived neural lineages expressing GFAP (D12 after replating, mean±S.D.): 7.6 ± 2.3%
percentage of pES cell-derived neural lineages expressing NFL (D12 after replating, mean±S.D.): 74.4 ± 12.3^c %
percentage of pES cell-derived neural lineages expressing TH (D12 after replating, mean±S.D.): 8.4 ± 3.5%
percentage of pES cell-derived neural lineages expressing nestin (D12 after replating, mean±S.D.): 77.9 ± 6.6^c %
percentage of pES cell-derived neural lineages expressing CNPase [1]: 89.8 ± 4.7^ab %
percentage of pES cell-derived neural lineages expressing GABA [1]: 80.5±9.2% and 80.5 ± 9.2^a %
percentage of pES cell-derived neural lineages expressing MAP2 [1]: 86.1 ± 3.2^a %
percentage of pES cell-derived neural lineages expressing O4 [1]: 90.7 ± 5.9%
percentage of pES cell-derived neural lineages expressing S100 [1]: 71.4 ± 12.5^a %
percentage of differentiated cells GFAP positive (during the 12-day post-treatment period (Table 3)): Less than 10%
percentage of cells expressing TH (during the culture, day 2 to day 12 (text summary of Table 5)): below 10%
ratio of cells expressing A2B5 (during the following culture, day 2 to day 12 (text summary of Table 4)): above 80%
